Molecules are shown by their SMILES.

Experimental findings from paper PMC7618597, “Dual Nurr1/RXR agonism of valerenic acid and synthetic mimetics enables dimer-selective Nurr1 modulation” (ACS medicinal chemistry letters, 2025) are described below.

The data set relates to HEK293T cells. Briefly: Multiplex toxicity assay. The data set is classed as cell-based. Conditions: for toxicity at the test concentrations of the gene expression study: 2 (10 μM), 3 (1 μM), multiplex toxicity assay; for concentration at which toxic effects start: HEK293T cells, confluence, metabolic activity, pyknosis, necrosis, n=4. Here is the method:
page 9: and 20 s of elongation at 68 °C. PCR product specificity was evaluated using a melting curve analysis ranging from 65 to 95 °C. Nurr1 target gene expression was normalized to rGAPDH mRNA expression per sample using the ΔCt-method. The following primers and annealing temperatures were used: rGAPDH (59.4 °[…]); rTH (59.4 °C): 5'-[…]); rFLRT2 (59.0 °C): 5'-[NT]); rSESN3 (62.4 °C): […]); rCRMP4 (58.0 °C): […]); rBDNF (58.0 °C): 5'-[NT]); rBIRC5 (59.4 °C): 5'-[…]); rCCND2 (59.0 °C): [NT]); rXIAP (61.1 °C): […]); rSOD2 (59.4 °C): [NT]). Multiplex toxicity assay. HEK293T cells were grown in DMEM high glucose, supplemented with 10% FCS, sodium pyruvate (1 mM), penicillin (100 U/mL), and streptomycin (100 μg/mL) at 37 °C and 5% CO2. The day before experiment, cells were seeded in 96-well plates (2 × 10^4 cells per well) in culture medium with reduced serum content (0.2%). The next day, medium was changed, maintaining the low serum content and additionally containing 0.1% DMSO with 2 (1 or 10 μM) or 3 ([…]), 0.1% DMSO with bexarotene (100 μM) or flavopiridol (100 μM) as positive controls, or 0.1% DMSO alone as untreated control. Each sample was prepared in 4 biologically independent replicates. After incubation for 24 h, the medium was changed to 90 μL culture medium without phenol red (0.2% FCS) and 10 μL Cell Counting Kit- 8 solution (CCK-8, MedChem Express #HY-[…]), and absorbance was measured after 2 h incubation at 450 nm on a Tecan Spark Cyto (Tecan Group AG) to assess metabolic activity of the cells. Thereafter, Hoechst33342 (10 μM, #ab228551, Abcam Limited, Cambridge, UK) and Live-or-Dye Nuc-Fix Red (0.05×, Biotium, Inc., Fremont, CA, 1691 USA) were added and incubated for 30 min to detect pyknosis and cellular necrosis, respectively. After incubation, a total of 3 fluorescence images per well at 10× magnification was taken to detect Hoechst33342-positive cell nuclei (Ex: 381-400 nm, Em: 414-450 nm) and Live-or- Dyepositive cells (Ex: 543-566 nm, Em: 580-611 nm), respectively, using a Tecan Spark Cyto (Tecan Group AG). Necrotic cells were counte d using CellProfiler (Version 4.2.6). Reference readings for background correction and detection of autofluorescence were taken at the same wavelengths prior to staining. Before drug administration, after the first medium exchange, 24 h after drug administration, and after fluorescence imaging cell confluence was assessed using the Tecan Spark Cyto, to account for changes in cell confluence due to drug administration and cell handling. Pyknosis was defined via a cutoff range describing the significant shift of Hoechst33342-positive signal per nuclear area in bexarotene vs. vehicle treated cells. The mean intensity/area values for each well were further normalized to the […] increment of pyknosis. […]

`Cc1c2c(n(-c3ccc(CC(=O)O)cc3)c1C)CCC(F)(F)C2` [compound 2]: the “toxicity at the test concentrations of the gene expression study” value is reported as “non-toxic” and the “concentration at which toxic effects start” value was more than 30 µM.

`Cc1c(C)n(-c2ccc(CC(=O)O)cc2)c2ccc(F)cc12` [compound 3]: the “toxicity at the test concentrations of the gene expression study” value was “non-toxic” and the “concentration at which toxic effects start” value stood at 10 µM.
